Values of other authors, collected in patent US11718832B2, “Method to reduce oncogenic potential of induced pluripotent stem cells from aged donors” (MEMORIAL SLOAN-KETTERING CANCER CENTER, priority 2014, dated 2023).

System: GSS
Conditions: literature

| SMILES | Inhibition of GSS |
| --- | --- |
| [N-]=[N+]=CC(=O)CC[C@H](N)C(=O)O [6-Diazo-5-oxo-L-norleucine] | inhibit GSS |
| [N-]=[N+]=CC(=O)OC[C@H](N)C(=O)O [azaserine] | inhibit GSS |
| CCCCS(=N)(=O)CCC(N)C(=O)O (stereo not drawn) [buthionine sulfoximine] | inhibit GSS |
